Several values for one entry are separate records, joined by “and”; a condition that tells them apart may be missing. Equal entries are not always repeated.
Test system: 186277-243-T-J2-PDC spheroids with HUVEC/MSC, viability
Assay: Anticancer human tumor 186277-243-T-J2-PDC patient-derived colon adenocarcinoma cell line growth inhibition [CLK]
Conditions: for viability, T/C: stronger effect = lower value
Procedure, shortened: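 Multi-cell-type spheroids combined patient-derived tumor cells with HUVEC endothelial cells and human mesenchymal stem cells. Paired agents were dosed in half-log steps down from about clinical Cmax, or from 10 microM where Cmax was unknown.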

[1] = curve of first compound, second compound 0.0316 µM
[2] = curve of first compound, second compound 0.1 µM
[3] = curve of first compound, second compound 0.316 µM
[4] = curve of first compound, second compound 1 µM
[5] = curve of first compound, second compound 3.16 µM
[6] = curve of first compound, second compound 10 µM
[7] = second compound 0.0316 µM, first compound 0.0316 µM
[8] = second compound 0.0316 µM, first compound 0.1 µM
[9] = second compound 0.0316 µM, first compound 0.316 µM
[10] = second compound 0.0316 µM, first compound 1 µM
[11] = second compound 0.0316 µM, first compound 3.16 µM
[12] = second compound 0.0316 µM, first compound 10 µM
[13] = second compound 0.1 µM, first compound 0.0316 µM
[14] = second compound 0.1 µM, first compound 0.1 µM
[15] = second compound 0.1 µM, first compound 0.316 µM
[16] = second compound 0.1 µM, first compound 1 µM
[17] = second compound 0.1 µM, first compound 3.16 µM
[18] = second compound 0.1 µM, first compound 10 µM
[19] = second compound 0.316 µM, first compound 0.0316 µM
[20] = second compound 0.316 µM, first compound 0.1 µM
[21] = second compound 0.316 µM, first compound 0.316 µM
[22] = second compound 0.316 µM, first compound 1 µM
[23] = second compound 0.316 µM, first compound 3.16 µM
[24] = second compound 0.316 µM, first compound 10 µM
[25] = second compound 1 µM, first compound 0.0316 µM
[26] = second compound 1 µM, first compound 0.1 µM
[27] = second compound 1 µM, first compound 0.316 µM
[28] = second compound 1 µM, first compound 1 µM
[29] = second compound 1 µM, first compound 3.16 µM
[30] = second compound 1 µM, first compound 10 µM
[31] = second compound 3.16 µM, first compound 0.0316 µM
[32] = second compound 3.16 µM, first compound 0.1 µM
[33] = second compound 3.16 µM, first compound 0.316 µM
[34] = second compound 3.16 µM, first compound 1 µM
[35] = second compound 3.16 µM, first compound 3.16 µM
[36] = second compound 3.16 µM, first compound 10 µM
[37] = second compound 10 µM, first compound 0.0316 µM
[38] = second compound 10 µM, first compound 0.1 µM
[39] = second compound 10 µM, first compound 0.316 µM
[40] = second compound 10 µM, first compound 1 µM
[41] = second compound 10 µM, first compound 3.16 µM
[42] = second compound 10 µM, first compound 10 µM
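Also: compound exposure lasted seven days before readout.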
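For viability, T/C in this document: 100% = DMSO vehicle control wells.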

C#Cc1c(F)ccc2cc(O)cc(-c3ncc4c(N5CC6CCC(C5)N6)nc(OCC56CCCN5CC(F)C6)nc4c3F)c12 (centres undefined) + CN1CCN(c2cc(C(=O)Nc3cc4cc(-c5cnn(C)c5)ccc4cn3)ccn2)CC1
IC50 [1]: 0.891 µM | IC50 [2]: 0.188 µM | IC50 [3]: < 0.0316 µM | IC50 [4]: < 0.0316 µM | IC50 [5]: < 0.0316 µM | IC50 [6]: < 0.0316 µM | viability, T/C [7]: 110% | viability, T/C [8]: 88.2% | viability, T/C [9]: 76.2% | viability, T/C [10]: 44% | viability, T/C [11]: 29.4% | viability, T/C [12]: 15.2% | viability, T/C [13]: 73.7% | viability, T/C [14]: 75.3% | viability, T/C [15]: 29.7% | viability, T/C [16]: 22.9% | viability, T/C [17]: 16.3% | viability, T/C [18]: 9.03% | viability, T/C [19]: 16% | viability, T/C [20]: 11.7% | viability, T/C [21]: 6.4% | viability, T/C [22]: 4.52% | viability, T/C [23]: 4.02% | viability, T/C [24]: 2.36% | viability, T/C [25]: 0.29% | viability, T/C [26]: 0.77% | viability, T/C [27]: 0.35% | viability, T/C [28]: 0.39% | viability, T/C [29]: 0.43% | viability, T/C [30]: 0.19% | viability, T/C [31]: 1.1% | viability, T/C [32]: 0.65% | viability, T/C [33]: 0.64% | viability, T/C [34]: 1.1% | viability, T/C [35]: 1.04% | viability, T/C [36]: 0.26% | viability, T/C [37]: 0.72% | viability, T/C [38]: 0.54% | viability, T/C [39]: 0.53% | viability, T/C [40]: 0.64% | viability, T/C [41]: 1.33% | viability, T/C [42]: 0.27%

CC(C)CC(NC(=O)C(Cc1ccccc1)NC(=O)c1cnccn1)B(O)O (centres undefined)
viability, T/C (compound 0.000949 µM): 95.9% and 106% | viability, T/C (compound 0.003 µM): 75.5% and 53.2% | viability, T/C (compound 0.00949 µM): 0.47% and 2.37% | viability, T/C (compound 0.03 µM): 0.24% and 0.94% | viability, T/C (compound 0.0949 µM): 0.79% and 3.7% | viability, T/C (compound 0.3 µM): 0.71% and 0.52% | IC50 (curve of compound): 0.00444 µM and 0.00322 µM

Nc1ccn(C2OC(CO)C(O)C2(F)F)c(=O)n1 (centres undefined)
viability, T/C (compound 0.0316 µM): 15.6% and 11.9% | viability, T/C (compound 0.1 µM): 15.7% and 12.4% | viability, T/C (compound 0.316 µM): 15.3% and 12.4% | viability, T/C (compound 1 µM): 17.3% and 13.5% | viability, T/C (compound 3.16 µM): 19% and 14% | viability, T/C (compound 10 µM): 20.5% and 13.1% | IC50 (curve of compound): < 0.0316 µM

C=CC(=O)N1CCN(c2nc(=O)n(-c3c(C)ccnc3C(C)C)c3nc(-c4c(O)cccc4F)c(F)cc23)C(C)C1 (centres undefined) + CNC(=O)c1ccc(Nc2nc(OC3CCCC3)c3c(-c4ccc5nc(C)oc5c4)c[nH]c3n2)c(OC)c1
IC50 [1]: > 10 µM | IC50 [2]: > 10 µM | IC50 [3]: 2.16 µM | IC50 [4]: < 0.0316 µM | IC50 [5]: < 0.0316 µM | IC50 [6]: < 0.0316 µM | viability, T/C [7]: 91.3% | viability, T/C [8]: 89.6% | viability, T/C [9]: 100% | viability, T/C [10]: 86.2% | viability, T/C [11]: 114% | viability, T/C [12]: 110% | viability, T/C [13]: 77.3% | viability, T/C [14]: 79.4% | viability, T/C [15]: 77.7% | viability, T/C [16]: 77.8% | viability, T/C [17]: 72% | viability, T/C [18]: 58.2% | viability, T/C [19]: 55.5% | viability, T/C [20]: 51.2% | viability, T/C [21]: 48% | viability, T/C [22]: 57% | viability, T/C [23]: 47.4% | viability, T/C [24]: 38.5% | viability, T/C [25]: 39.4% | viability, T/C [26]: 39.4% | viability, T/C [27]: 39.3% | viability, T/C [28]: 34.7% | viability, T/C [29]: 38.3% | viability, T/C [30]: 28% | viability, T/C [31]: 38.4% | viability, T/C [32]: 38.2% | viability, T/C [33]: 34.9% | viability, T/C [34]: 34.3% | viability, T/C [35]: 34.9% | viability, T/C [36]: 23.8% | viability, T/C [37]: 35.4% | viability, T/C [38]: 33.5% | viability, T/C [39]: 36.3% | viability, T/C [40]: 37.8% | viability, T/C [41]: 37.1% | viability, T/C [42]: 24.4%

C=CC(=O)Nc1cc(Nc2nccc(-c3cn(C)c4ccccc34)n2)c(OC)cc1N(C)CCN(C)C + CN1CCN(c2cc(C(=O)Nc3cc4cc(-c5cnn(C)c5)ccc4cn3)ccn2)CC1
IC50 [1]: > 0.3 µM | IC50 [2]: > 0.3 µM | IC50 [3]: < 0.000949 µM | IC50 [4]: < 0.000949 µM | IC50 [5]: < 0.000949 µM | IC50 [6]: < 0.000949 µM | viability, T/C (second compound 0.0316 µM, first compound 0.000949 µM): 92.1% | viability, T/C (second compound 0.0316 µM, first compound 0.003 µM): 92.6% | viability, T/C (second compound 0.0316 µM, first compound 0.00949 µM): 90.9% | viability, T/C (second compound 0.0316 µM, first compound 0.03 µM): 78.2% | viability, T/C (second compound 0.0316 µM, first compound 0.0949 µM): 83.8% | viability, T/C (second compound 0.0316 µM, first compound 0.3 µM): 82.2% | viability, T/C (second compound 0.1 µM, first compound 0.000949 µM): 87% | viability, T/C (second compound 0.1 µM, first compound 0.003 µM): 75.6% | viability, T/C (second compound 0.1 µM, first compound 0.00949 µM): 86.8% | viability, T/C (second compound 0.1 µM, first compound 0.03 µM): 92.3% | viability, T/C (second compound 0.1 µM, first compound 0.0949 µM): 70.9% | viability, T/C (second compound 0.1 µM, first compound 0.3 µM): 64% | viability, T/C (second compound 0.316 µM, first compound 0.000949 µM): 25.9% | viability, T/C (second compound 0.316 µM, first compound 0.003 µM): 26.1% | viability, T/C (second compound 0.316 µM, first compound 0.00949 µM): 25.2% | viability, T/C (second compound 0.316 µM, first compound 0.03 µM): 21.2% | viability, T/C (second compound 0.316 µM, first compound 0.0949 µM): 20.8% | viability, T/C (second compound 0.316 µM, first compound 0.3 µM): 14% | viability, T/C (second compound 1 µM, first compound 0.000949 µM): 0.45% | viability, T/C (second compound 1 µM, first compound 0.003 µM): 0.44% | viability, T/C (second compound 1 µM, first compound 0.00949 µM): 1.59% | viability, T/C (second compound 1 µM, first compound 0.03 µM): 0.36% | viability, T/C (second compound 1 µM, first compound 0.0949 µM): 0.85% | viability, T/C (second compound 1 µM, first compound 0.3 µM): 0.32% | viability, T/C (second compound 3.16 µM, first compound 0.000949 µM): 1.64% | viability, T/C (second compound 3.16 µM, first compound 0.003 µM): 1.27% | viability, T/C (second compound 3.16 µM, first compound 0.00949 µM): 2.11% | viability, T/C (second compound 3.16 µM, first compound 0.03 µM): 0.98% | viability, T/C (second compound 3.16 µM, first compound 0.0949 µM): 0.87% | viability, T/C (second compound 3.16 µM, first compound 0.3 µM): 0.74% | viability, T/C (second compound 10 µM, first compound 0.000949 µM): 0.65% | viability, T/C (second compound 10 µM, first compound 0.003 µM): 0.71% | viability, T/C (second compound 10 µM, first compound 0.00949 µM): 0.97% | viability, T/C (second compound 10 µM, first compound 0.03 µM): 0.86% | viability, T/C (second compound 10 µM, first compound 0.0949 µM): 0.61% | viability, T/C (second compound 10 µM, first compound 0.3 µM): 1.03%

COc1c(OCCCN2CCOCC2)ccc2c3n(c(=NC(=O)c4cnc(N)nc4)nc12)CCN3
viability, T/C (compound 0.00316 µM): 84.7% and 90.2% | viability, T/C (compound 0.01 µM): 91.5% and 103% | viability, T/C (compound 0.0316 µM): 63.3% and 52.9% | viability, T/C (compound 0.1 µM): 40% and 23.9% | viability, T/C (compound 0.316 µM): 23.7% and 13.1% | viability, T/C (compound 1 µM): 15.5% and 8.53% | IC50 (curve of compound): 0.0636 µM and 0.0346 µM

C=CC(=O)Nc1cc(Nc2nccc(-c3cn(C)c4ccccc34)n2)c(OC)cc1N(C)CCN(C)C
viability, T/C (compound 0.000949 µM): 84.2% and 100% | viability, T/C (compound 0.003 µM): 98.2% and 101% | viability, T/C (compound 0.00949 µM): 84.3% and 112% | viability, T/C (compound 0.03 µM): 82.3% and 97.6% | viability, T/C (compound 0.0949 µM): 83.6% and 116% | viability, T/C (compound 0.3 µM): 87.2% and 95.1% | IC50 (curve of compound): > 0.3 µM

From PubChem BioAssay AID2060625 (Molecular Pharmacology Branch, DTP, NCI, 2025)
